{"source": "patent US7199156B2", "about": "“Composition and method to treat solid tumors” (priority 2003, dated 2007)", "key": {"[1]": {"settings": "free BAPN; quickly excreted and metabolized; cited from earlier work"}, "[2]": {"tested_on": "malignant mammary adenocarcinoma, code 13762 NM", "experiment": "Single injection of lipophilic lathyrogen/polymeric carrier into mammary carcinoma (Example V)", "type": "in vivo, rats", "settings": "single intratumoral injection on day 10, in polymeric carrier with unmodified DPA or BAPN", "description": "In this Example V, Applicant prepared a formulation comprising methylester-DPA.HCl, i.e. Compound II wherein R1 is methyl and wherein R2 is hydrogen, and wherein X is chloride, or Hexyl(amino)-propionitrile, i.e. Compound IV, wherein R4 is hexyl, dispersed in a liquid polymeric carrier.\nApplicant dispersed 1 gram of either methylester-DPA.HCl, or hexyl(amino) propionitrile, in combination with about 100 mg of the unmodified DPA or BAPN, respectively, in about 1 ml of the liquid polymer. After thorough mixing, 1 ml volume syringes were filled with Applicant's formulation. All preparations were performed at about 4° C., over crushed ice, and the syringes and needles used were refrigerated prior to loading. The loaded syringes were kept in a refrigerated vessel until used.\nThe rat model of solid tumor was described by Miller et al. (Proc Nat'l Acad Sci 90,3304,1993). Fischer 344 (F344) inbred female rats were used. The initial body weight was 100 grams, plus or minus about 7 grams. The right flank area was clipped, and the rats were tattooed for identification in the ear. […]\nThere were 6 rats per group. […] Once the implanted tumor was detectable, the size of that tumor was measured by caliper in two perpendicular directions.\nThe growth of each tumor was determined every second day. […]"}, "breast adenocarcinome": {"tested_on": "breast adenocarcinome", "experiment": "Single injection into mammary carcinoma, breast adenocarcinome model (Example VI)", "type": "in vivo, rats", "settings": "single intratumoral injection; FIG. 3", "description": "In this Example VI, Applicant studied the effect of various treatments on the tumor growth, survival rate, morphology, and metastases in Fisher rats of breast adenocarcinome model.\nThe method of Example V was used to prepare and inject tumor chunks into the test animals. In Example VI, Applicant used 5 groups of animals with 8 rats per group.\nThe preparation of the treatment modalities was as follows: • Group 1. Control • Group 2. Polymer Carrier only; used 1.5 ml polymer+1 ml water (polymer used: 38% PLGA-c-PEG in saline) • Group 3. 2 grams Polymeric Carrier+1.038 grams Hexyl ester DPA.HCl+200 mg DPA • Group 4. 800 mg Hexyl ester DPA.HCl+200 mg DPA+2 ml water • Group 5. 1.5 grams Polymeric Carrier+1.5 grams Hexyl (amino)propionitrile+200 mg BAPN Once mixed, all materials were kept on ice until injection time. The various formulations were injected into the tumor using a 23 gauge needle. The retains of Groups 2, 3, and 5, remained pourable after 2–3 hours at 82° F."}, "[3]": {"settings": "known properties; cited from earlier work"}, "B-16 melanoma cells": {"tested_on": "B-16 melanoma cells", "experiment": "Repeated injections of DPA into melanoma tumor (Example IV)", "type": "in vivo, mice", "settings": "for Volume of melanoma tumor: 5 mg DPA in 0.2 ml saline daily, intratumoral, average", "description": "Female mice, standard inbred C 57/Black, having between about 20 to about 25 g body weight were injected s.c. in the right flank region with 0.1 ml of […] B-16 melanoma cells. These cells are harvested in their end of the log phase growth. These cells come from a tissue culture, using RPMI 1640 medium with 10% FBS enriched with 1-glutamine, penicillin and streptomycin. Cells are harvested by trypsinization, counted, suspended in sterile PBS, and injected in 0.1 ml s.c. in flank region. There were 4 mice per group.\nInjection of these melanoma cells resulted within 10 days post injection to a tumor weight of about 1.5 g. Tumor volumes were monitored 3× per week by caliper (MITUYO digital, Smalls Parts Inc., Phoenix, Ariz.) in two perpendicular directions and once per week for body weight. Tumor volume in cubic millimeters is calculated by the formula: (length×(width^2))/2.\nMonitoring was continued up to 4 weeks. When the control animals began to die from the tumor burden, the experiment was terminated. Individual animals were terminated once the tumor volume exceeded 20% of mice weight, or when the body weight loss exceeded 20% of the starting body weight.\nTable 2 recites the volume, in cubic millimeters, of the melanoma tumor injected daily with 5 mg DPA in 0.2 ml of saline. The treatment was administered once the tumor reached a detectable and measurable size. Average volumes are recited in Table 2. […] There was no effect on body weight or animals behavior."}, "[4]": {"settings": "cited from earlier work"}, "[5]": {"experiment": "Rate of release of lathyrogen from polymeric carrier HYPA(N-30) into saline", "type": "physicochemical", "settings": "for Percent Released: from HYPA(N-30) carrier into saline, 37° C.", "description": "Applicant compared the rate of release from a polymeric carrier of unmodified […] hydrophilic lathyrogen, and a lipophilic D-penicillamine adduct formed by reacting DPA with hexanaldehyde using a published synthetic procedure. Both lathyrogens were dispersed in a polyacrylonitrile (“PAN”) polymer sold in commerce by SKY Polymers, Princeton, N.J. under the tradename HYPA(N-30). The HYPA(N-30) was dissolved in 100% DMSO. Water drowning this DMSO/HYPA(N-30)/lipophilic DPA solution, using a syringe with a 16 gauge needle attached, into saline (0.9% NaCl in water W/v) forms a flexible, solid string. The […] was kept at 37° C., and the incubation jar was minimally shaken. At the times recited in Table 1, an aliquot of the incubation medium was collected and the amount of released D-penicillamine was determined using a reaction between ninhydrin and the free amino groups on the released DPA. […] The ninhydrin reaction requires heating the sample at 100° C., thus freeing the amino group. Table 1 recites the results."}}, "note": "“Also recorded” adds a separate entry of the source. Marks after values point to notes of the source that are not given here.", "data": [{"compound": "N#CCCN", "note": "[BAPN, beta-aminopropionitrile]", "values": [{"measurement": "duration of activity", "setting": "[1]", "value": "no more than 24 hours"}]}, {"compound": "CCCCCCNCCC#N", "note": "[Hexylamino-propionitrile, Hexyl(amino)-propionitrile]", "values": [{"measurement": "growth of the tumor", "setting": "[2]", "value": "markedly inhibited; also recorded: inhibitory effect"}]}, {"compound": "COC(=O)[C@H](N)C(C)(C)S.Cl", "note": "[methylester-DPA.HCl, DPA-Methylester Hydrochloride]", "values": [{"measurement": "tumor growth", "setting": "breast adenocarcinome", "value": "effective"}, {"measurement": "growth of the tumor", "setting": "[2]; Hydrochloride", "value": "even more pronounced inhibition of tumor growth; also recorded: inhibitory effect"}]}, {"compound": "D-Pencillamine [DPA]", "values": [{"measurement": "Toxicity In local administration", "setting": "[3]", "value": "none"}, {"measurement": "Toxicity in systemic administration", "setting": "[3]", "value": "yes"}, {"measurement": "effect on body weight or animals behavior", "setting": "B-16 melanoma cells; daily intratumoral 5 mg DPA", "value": "no effect"}, {"measurement": "Volume of melanoma tumor", "setting": "B-16 melanoma cells; day 0 after detectable tumor was injected", "value": 89, "unit": "cubic millimeters"}, {"measurement": "Volume of melanoma tumor", "setting": "B-16 melanoma cells; day 2", "value": "174* cubic millimeters"}, {"measurement": "Volume of melanoma tumor", "setting": "B-16 melanoma cells; day 5", "value": "806* cubic millimeters"}, {"measurement": "Volume of melanoma tumor", "setting": "B-16 melanoma cells; day 7", "value": "816* cubic millimeters"}, {"measurement": "Volume of melanoma tumor", "setting": "B-16 melanoma cells; day 9", "value": "486* cubic millimeters"}, {"measurement": "solubility in aqueous media, such as tissue fluid", "setting": "[4]", "value": "very soluble"}, {"measurement": "time over which released from the polymeric carrier", "setting": "[5]; FIG. 1", "value": "a few hours"}, {"measurement": "Percent Released", "setting": "[5]; Time 0.1 hours", "value": 29, "unit": "%"}, {"measurement": "Percent Released", "setting": "[5]; Time 2 hours", "value": 89, "unit": "%"}, {"measurement": "Percent Released", "setting": "[5]; Time 20 hours", "value": 100, "unit": "%"}]}]}
